From US20090042820A1, “Tubulin Binding Anti Cancer Agents And Prodrugs Thereof” (Threshold Pharmaceuticals, Inc., priority 2004, published 2009)
Where two headings read alike, the source gives them in different places.

How the values were obtained:
[1] = patients, reported in literature; cited from earlier work
H460 cells [2] = assay: Alamar Blue antiproliferation assay, H460 cell line; format: cell-based, human; conditions: Homo sapiens
Procedure: (§1) To determine the effect of the compounds of the present invention on cell proliferation, the antiproliferative activity of these compounds was tested in a multi-well Alamar Blue based assay (at 2 h and 3 days). Cell growth in the presence and absence of the test compound as tabulated in Table 1 was compared, as measured by a fluorescence plate reader at excitation 550 nm and emission 590 nm (see Biosource International Inc., Tech Application Notes, Use of Alamar Blue in the measurement of Cell Viability and Toxicity, Determining IC50). H460 cells (ATCC HTB-177 ([…]), 4,000 cells/well/200 μl) and LNCap cells (ATCC CRL-1740, 6,000 cells/well/200 μl) were seeded in a 96 well plate in RPMI medium (Invitrogen Corporation, Carlsbad, Calif.). After 24 hours, these plates were divided into 3 groups—Control group, 2 h treatment group and 3 day treatment group.
(§2) In the 2 h treatment group, after 2 h the cells were rinsed to remove the test compound and incubated for 3 days, followed by staining with AlamarBlue. The cells in the 3-day treatment group were incubated for 3 days, followed by staining with AlamarBlue. In the Control group, AlamarBlue was added to the plate at (i) day 0 and (ii) day 3 and measured to establish the control reading. In all the groups, the capacity of the cells to proliferate was measured 6 hours after addition of AlamarBlue by a fluorescence plate reader at excitation 550 nm and emission 590 nm.

MES-SA = assay: Alamar Blue antiproliferation assay, MES-SA; format: cell-based; conditions: Homo sapiens, 72 h, 3 Day
MES-SA/DX5 = assay: Alamar Blue antiproliferation assay, MES-SA/DX5; format: cell-based; conditions: Homo sapiens, 72 h; MES-SA/DX5, 3 Day
HT29 = assay: Alamar Blue antiproliferation assay, HT29; format: cell-based; conditions: Homo sapiens, HT-29, 72 h; HT29, 3 Day
T47D = assay: Alamar Blue antiproliferation assay, T47D; format: cell-based; conditions: Homo sapiens, 72 h, 3 Day
H460 cells [3] = assay: Cell cycle analysis; format: cell-based, human; conditions: 24 h
Procedure: H460 cells (2×10^5 cells/ml/well) were seeded in a 24 well plate. The culture media were removed after 24 h, the cells were trypsinized and centrifuged. […] The cells were centrifuged and the supernatant was discarded. The cell cycle staining reagent (Guava Technologies, Hayward, Calif., USA, 200 μl) was added to each well. The cells were shielded from light and incubated at room temperature for 30 min.

tubulin = assay: Tubulin polymerization inhibition (cell free tubulin fluorescence); format: biochemical; conditions: compared to untreated tubulin, read-out: IC50 (μM), concentration that reduced tubulin fluorescence by 50%
Procedure: A sample of cell free tubulin polymerizes and the sample's fluorescence emission increases. Inhibition of tubulin polymerization by a tubulin binding compounds of the present invention was measured by the dose dependence of cell free tubulin fluorescence.

[4] = Metabolic stability in mouse liver microsomes; format: in vitro ADME; conditions: 5 μM, 1 mg/mL protein, NADPH, 37° C.
Procedure: An in vitro assessment of metabolic stability of compounds was performed using commercially available mouse liver microsomes (MLM) containing cytochrome P450 enzymes (Cedra Corp, Austin, Tex.). A solutions (5 μM) of a compound and microsomes (1 mg/mL protein) was prepared. P450 enzymatic reactions were initiated by adding an NADPH solution. Enzymatic reactions were carried out in a thermostated shaking water bath kept at 37° C. Fifty μl of the reaction mixture was withdrawn immediately and 30 minutes after the addition of the NADPH solution and the proteins were precipitated with acetonitrile. The clear supernatant was analyzed by reversed phase LC-MS/MS (Applied Biosystems API-3000 with Hypersil-BDS C18 column and gradient elution), with internal standard area ratio quantification for the amount the compound remaining as shown in table 4.

Plasma stability = format: in vitro ADME; conditions: mouse plasma, 5 μM, 37° C.
Procedure: For an assessment of plasma stability of compounds, commercially available mouse plasma (Bioreclamation, Hicksville, N.Y.) was added to a DMSO solution of a compound, to a concentration of 5 μM. The reaction mixture (50 μl) was withdrawn immediately and after 30 minutes at 37° C., proteins were precipitated with acetonitrile. The clear supernatant was analyzed by reversed phase LC-MS/MS and the amount the compound remaining quantified as shown in table 4.

[5] = H460 xenograft mouse model; format: in vivo; conditions: female, mouse, in vivo; daily dose for five days, CB17/SCID mice; read-out: maximum tolerated dose
Procedure: (§3) Female CB17/SCID mice (purchased from Taconic, Oxnard, Calif.), 7-8 weeks of age, were allowed to acclimatize for at least three days, and handled under pathogen-free conditions. Human non-small cell lung cancer cell line […] was obtained from the American Type Culture Collection. The cell lines were cultured in RPMI 1640 media supplemented with 10% fetal bovine serum. Cells were maintained in a 37° C. incubator with 5% CO2. The H460 cells were harvested from culture and inoculated at 1×10^6 cells/animal in the […] subcutaneous space. […] Taxol was administered approximately 2-3 hours before that of compound 30.
(§4) The body weight of each mouse was recorded twice per week (FIG. 1). […] One animal in the treatment group was found dead on day 18, and two were found dead on day 22 in the combination group.
(§5) FIG. 2 graphically illustrates the mean tumor volume for each treatment group. Growth of each xenograft was monitored by externally measuring tumors in two dimensions using a digital caliper twice per week. Tumor volume (V) was determined by the following equation: V=(L×W^2)/2, where L is the length and W is the width of a xenograft. Tumor volumes were measured twice weekly. On day 11, the Treated/Control (T/C) ratio was 65% and 52% in the treatment and combination groups, respectively. At the final measurement (day 22), the T/C ratio for the treatment and combination groups respectively were 43% and 19%.

H460 xenograft = H460 xenograft mouse model; format: in vivo; conditions: for Treated/Control (T/C) ratio, tumor volume: compound 30 5 mg/kg daily for five days from day 8
Procedure: as §3, §4, §5

cancer cell = assay: Cancer cell antiproliferation assay (cell line not stated); format: cell-based; conditions: summary statement; read-out: GI50 or IC50 in a cancer cell antiproliferation assay
Procedure: In one aspect, the present invention provides a compound of formula (I-VII) having a GI50, GI90, IC50, or IC50 of about 0.001 to about 1000 nM, about 0.01 to about 100 nm, about 0.1 to about 50 nM, and about 1 to about 10 nM in a cancer cell antiproliferation assay. In one embodiment, the present invention provides a compound of formula (I) having a GI50 or IC50 of about 0.01 to about 100 nm, about 0.1 to about 50 nm, and about 1 to about 10 nm in a cancer cell antiproliferation assay. In various embodiments, said antiproliferation assays employ cancer cell including but not limited to gastric, colon, breast, and non-small cell lung cancer. In various embodiments, the […] cancer cell used is MESSA or doxorubicin resistant MESSA/DX5 cell; the colon cancer cell is HT29 cell; the breast cancer cell is T47D cell; and the non-small cell lung cancer cell is H460 cell.
as §1, §2

[6] = NCI-H460, 2 h treatment, then 3 days incubation, read-out: GI50 (nM) 2 Hour
[7] = NCI-H460, 72 h, 3 day treatment, read-out: GI50 (nM) 3 Days

| GI50 (H460 cells [2]; [6]) [nM] | GI50 (H460 cells [2]; [7]) [nM] | GI50 (HT29) [nM] | GI50 (T47D) [nM] | IC50 (cancer cell) [nM] | Compound | GI50 (MES-SA) [nM] | GI50 (MES-SA/DX5) [nM] | % G2/M (H460 cells [3]; H460, 0.4 nM) [%] | % Go/G1 (H460 cells [3]; H460, 0.4 nM) [%] | % S (H460 cells [3]; H460, 0.4 nM) [%] | % G2/M (H460 cells [3]; H460, 1.2 nM) [%] | % Go/G1 (H460 cells [3]; H460, 1.2 nM) [%] | % S (H460 cells [3]; H460, 1.2 nM) [%] | % G2/M (H460 cells [3]; H460, 3.7 nM) [%] | % Go/G1 (H460 cells [3]; H460, 3.7 nM) [%] | % S (H460 cells [3]; H460, 3.7 nM) [%] | % G2/M (H460 cells [3]; H460, 11.1 nM) [%] | % Go/G1 (H460 cells [3]; H460, 11.1 nM) [%] | % S (H460 cells [3]; H460, 11.1 nM) [%] | % G2/M (H460 cells [3]; H460, 33.3 nM) [%] | further results |
| --- | --- | --- | --- | --- | --- | --- | --- | --- | --- | --- | --- | --- | --- | --- | --- | --- | --- | --- | --- | --- | --- |
| – | 15.8 | 12.6 | 200 | 1 to 50 | COc1cc(C(=O)c2n[nH]c3c(Br)c(OC)ccc23)cc(OC)c1OC [Compound 39] | 2.5 | 10 | 28 | 50 | 15 | 31 | 47 | 14 | 32 | 45 | 12 | 29 | 47 | 14 | 60 | % Go/G1 (H460 cells [3]; H460, 33.3 nM): 18%; % S (H460 cells [3]; H460, 33.3 nM): 13%; IC50 (tubulin): 7.9 µM |
| 100 | 10 | – | – | – | COc1cc(C(=O)c2n[nH]c3c(C#CCOC(=O)OCc4ccc([N+](=O)[O-])o4)c(OC)ccc23)cc(OC)c1OC [Compound 57] | – | – | – | – | – | – | – | – | – | – | – | – | – | – | – | Metabolic stability (MLM, % remaining at 30 min) [4]: 21 ± 4% |

More lines, now with the values behind:

| Compound | GI50 (H460 cells [2]; [6]) [nM] | GI50 (H460 cells [2]; [7]) [nM] | GI50 (HT29) [nM] | GI50 (T47D) [nM] | IC50 (cancer cell) [nM] | GI50 (MES-SA) [nM] | GI50 (MES-SA/DX5) [nM] | % G2/M (H460 cells [3]; H460, 0.4 nM) [%] | % Go/G1 (H460 cells [3]; H460, 0.4 nM) [%] | % S (H460 cells [3]; H460, 0.4 nM) [%] | % G2/M (H460 cells [3]; H460, 1.2 nM) [%] | % Go/G1 (H460 cells [3]; H460, 1.2 nM) [%] | % S (H460 cells [3]; H460, 1.2 nM) [%] | % G2/M (H460 cells [3]; H460, 3.7 nM) [%] | % Go/G1 (H460 cells [3]; H460, 3.7 nM) [%] | % S (H460 cells [3]; H460, 3.7 nM) [%] | % G2/M (H460 cells [3]; H460, 11.1 nM) [%] | % Go/G1 (H460 cells [3]; H460, 11.1 nM) [%] | % S (H460 cells [3]; H460, 11.1 nM) [%] | % G2/M (H460 cells [3]; H460, 33.3 nM) [%] | further results |
| --- | --- | --- | --- | --- | --- | --- | --- | --- | --- | --- | --- | --- | --- | --- | --- | --- | --- | --- | --- | --- | --- |
| COc1ccc(/C=C\c2cc(OC)c(OC)c(OC)c2)cc1OP(=O)(O)O [Combretastatin A-4 phosphate] | – | – | – | – | – | – | – | – | – | – | – | – | – | – | – | – | – | – | – | – | maximum tolerated daily dose [1]: 60-68 mg/m^2 |
| COc1cc(C(=O)c2n[nH]c3c(C#CCO)c(OC)ccc23)cc(OC)c1OC [Compound 30] | 630 | 10 | 1.9 | 2.5 | 1 to 50 | 0.3 | 1.6 | 31 | 46 | 14 | 29 | 48 | 15 | 31 | 46 | 14 | 68 | 14 | 9 | 80 | % Go/G1 (H460 cells [3]; H460, 33.3 nM): 7%; % S (H460 cells [3]; H460, 33.3 nM): 7%; IC50 (tubulin): 3.9 µM; Metabolic stability (MLM, % remaining at 30 min) [4]: 101 ± 16%; Plasma stability (% remaining at 30 min) (Plasma stability): 104%; MTD at 5 days [5]: 5 to 20 mg/kg; toxicity at doses greater than 5 mg/kg (H460 xenograft; daily doses 20 and 50 mg/kg for five days, treatment and combination groups): toxic and caused lethality; Treated/Control (T/C) ratio, tumor volume (H460 xenograft; day 11): 65%; animals found dead (H460 xenograft; day 18, compound 30 5 mg/kg daily, ten per group): One; Treated/Control (T/C) ratio, tumor volume (H460 xenograft; day 22 (final measurement)): 43%; mean weight loss (H460 xenograft; day 22 from start of treatment on day 8, compound 30 5 mg/kg daily for five days): 8%; tumor volume as % of a control tumor volume (H460 xenograft; human cancer cell xenograft tumor bearing mice, summary statement): 5-70% |
| COc1cc(C(=O)c2n[nH]c3c(/C=C/CO)c(OC)ccc23)cc(OC)c1OC [Compound 54] | 501 | 2 | 5 | 20 | 1 to 50 | 3.2 | 6.3 | – | – | – | – | – | – | – | – | – | – | – | – | – | – |
| COc1cc(C(=O)c2n[nH]c3c(CCCO)c(OC)ccc23)cc(OC)c1OC [Compound 55] | > 10000 | 7.9 | 10 | 25 | 1 to 50 | 12 | 15.8 | – | – | – | – | – | – | – | – | – | – | – | – | – | – |
